# “And” between values parts separate entries of the source, which are not always exact repeats. Equal entries are not always repeated. “Also recorded” adds a separate entry of the source.
# What was measured:
# Assay type in all cases: in vivo, human
# [1] = tested on: facial papulo-pustular inflammatory acne lesions; experiment: Split-face radiant IR skin preparation prior to PDT for inflammatory type acne of the face (Example 6); settings: untreated side (no IR); one month later
# Protocol: A person was treated for facial papulo-pustular inflammatory acne lesions. After performing an acetone scrub on the treatment area, a radiant IR skin preparation was done on the right side of their face (970 nm, 80 mW/cm2, for 30 min). Then 5-aminolevulinic acid (Levulan™ Kerastick™) was applied to the skin and left for 90 min incubation time. […] Radiant IR skin preparation allows for a reduction in the number of PDT treatments necessary for significant clinical improvements.
# cystic acne lesions = experiment: Split face or split back pre-PDT radiant IR study, eleven cystic acne patients (Example 7); settings: one month after PDT; IR 970 nm 50 mW/cm2 15 min prior to 5-ALA; most patients
# Protocol: Study Design/Materials and Methods: Eleven (11) patients were enrolled in a split face or split back (pre-treated side versus control) study with a pre-approved IRB protocol. […] Lesion count was assessed both manually and by digital photography before and 4 weeks after one PDT procedure. Prior to the application of 5-ALA, one side of the face or back was pre-treated with radiant IR [CW LEDs emitting @ λ970 nm, irradiance 50 mW/cm2 for 15 minutes, total fluence 45 J/cm2], while the other half was used as control. PDT was then performed on the entire surface (face or back).
# [2] = tested on: inflammatory acne lesions; experiment: Randomized, controlled, rater-blinded split face/back trial of IR pre-treatment plus ALA-PDT in inflammatory acne (Example 9); design: key to Clinical Global Severity Assessment at Week-4, Median: 0: Clear; 1: Almost clear; 2: Mild; 3: Moderate; 4: Severe; 5: Very Severe; settings: for Clinical Global Severity Assessment at Week-4, Median: six-point rating scale, grade 0-5; for Change from Baseline in Lesion Counts, Total Inflammatory lesions, Median (reduction): week-4 (one month after PDT)
# Protocol: One side was pre-treated for 15 minutes with radiant IR light emitting diode (LED) (970 nm), while the other side was used as control. ALA was then applied after which PDT LED (630 nm) was performed on the entire face or back surface. Blinded lesion counts and clinical global assessment of severity were performed based on digital photographs before and four weeks after the PDT procedure.
# Inclusion criteria included patients with skin type I to III according to the Fitzpatrick Classification System [^xxviii]. Exclusion criteria comprised patients taking cortisone (Prednisone), anticoagulant therapy, or any drug known to increase photosensitivity. In addition, during the 12 months preceding the study, patients were required not to have used isotretinoin (Accutane), or applied topical steroids on the site to be treated. Moreover, oral antibiotics use, laser or topical anti-acne medication at the to-be-treated site were not permitted for eight weeks prior to the study. Patients gave written informed consent to participate in this trial in compliance with the US Code of Federal Regulations dealing with the conduct of clinical studies (21 CFR including parts 50 and 56 concerning informed consent and IRB regulations). The study was conducted according to Good Clinical Practice Guidelines and the principles of the Declaration of Helsinki, and was approved by the Institutional Review Board Services (Div. 1373737 Toronto, Canada).
# Patients were assigned to a split face or split back group to allow for within-patient assessments of clinical effects. Assignment was based on the patient's problem area. One side was randomly (using a coin flip) assigned to receive IR pre-treatment and ALA-PDT, and the other ALA-PDT alone to serve as control. The IR pre-treatment consisted of a 15 minute exposure to radiant IR LED at 970 nm ([…] using the LumiPhase-R/IR™, OPUSMED Inc. Montreal, Canada) to reach peak H2O absorption inside-out temperature of 45° C. Papillary dermis temperature was monitored with a needle probe throughout the session and up to 40 minutes (Type-T thermocouple, Omega, Montreal, Canada). ALA (20% Levulan Kerastick, DUSA Pharmaceuticals, USA) was then applied on both sides for 60 minutes, after which PDT with LED at 630 nm (50 mW/cm^2, 70 J/cm^2) was performed on the entire face or back surface for a duration of 23 minutes (LumiPhase-R/B™, OPUSMED Inc. Montreal, Canada). No cooling method was used. Digital photographs (Canon Dual Flash EOS 10D, Canon, Tokyo, Japan with EX SIGMA 50 mm 1:2.8 macro lens, Sigma, Aizu, Japan) were taken prior to and four weeks after the procedure. Each photograph was taken maintaining identical ambient lighting, pose and camera angles.
# Acne lesion counts were performed before and four weeks after the PDT treatment. All types of inflammatory (papules, pustules, nodules) and noninflammatory (open and closed comedones) acne lesions were counted. Lesion counts were performed based on the digital photographs by two non-treating physicians who were blinded to the treatment regimen (IR-treated or control side) and to the timing of the photographs (baseline or post-treatment).
# The global severity of acne was assessed at the end of the study by the […] non-treating physicians, as described above, using a six-point rating scale (Table 1). Clinical success was defined by grades 0 (clear) or 1 (almost clear).
# Adverse reactions were monitored throughout the study. Signs of erythema, oedema, scaling/crusting, bronzing, textural changes, hyperpigmentation, and hypopigmentation were documented during the time period of the clinical trial.
# Cronbach's alpha was calculated to assess inter-rater reliability in assessments. Reliability was deemed acceptable if Cronbach alpha was ≧7 allowing raters' assessments to be combined for analysis. The primary outcome variable was the percent change from baseline in inflammatory lesion count measured four weeks post-treatment. […]
compound,measurement,setting,value
NCC(=O)CCC(=O)O [5-aminolevulinic acid],PDT sessions needed for similar results,[1],needed an additional PDT session
same,"number of cystic lesions, pre-treated versus control side",cystic acne lesions,statistically significant decrease
same,tolerability of the treatment,"[2]; ALA-PDT with LED 630 nm, with or without IR pre-treatment, listed as ALA",overall well tolerated; also recorded: well tolerated with no significant adverse events
same,treatment-related adverse effects,[2]; ALA-PDT with or without IR pre-treatment,No unusual treatment-related adverse effects were observed
same,"Clinical Global Severity Assessment at Week-4, Median",[2]; Control side (ALA-PDT alone),2
same,"Change from Baseline in Lesion Counts, Total Inflammatory lesions, Median (reduction)","[2]; Control side (ALA-PDT alone), listed as ALA",38% and 37.86%
same,"Clinical Global Severity Assessment at Week-4, Median",[2]; IR-Treated side,1
same,"Change from Baseline in Lesion Counts, Total Inflammatory lesions, Median (reduction)","[2]; IR-Treated side, listed as ALA",73% and 73.21%
same,additional benefit of IR-treated side in reduction of inflammatory lesion count,"[2]; IR-treated versus control side, week-4",35%
same,time to disappearance of slight erythema post-PDT,[2]; most patients,≤ 48 h

# Source: patent US20130274834A1, “Method for the treatment of skin tissues” (priority 2006, published 2013)
